Experiments:
Male C57BL/6 mice = experiment: Oral glucose tolerance test in C57BL/6 mice; type: in vivo; conditions: 3 mpk and 10 mpk oral
Procedure: (§1) Male C57BL/6 mice (8-10 weeks) were grouped based on basal glucose levels and animals were fasted for 16 hours. Glucose level of each animal was estimated in blood collected from tail vein before animals were dosed orally with 0.5% Tween 80 and 0.5% NaCMC (vehicle control) and compounds at 3 and 10 mpk (n=5). After 30 minutes of compound dosing, blood glucose was again estimated and 2 g/kg/10 ml (20%) of Glucose solution was administered orally to all the animals. Blood glucose was estimated at 15, 30, 60, 90 and 120 minutes time points after glucose administration. Accu-Check active blood glucose meter was utilised for estimation of blood from tail vein.
Glucose reduction observed in animals treated with compounds of present invention is represented in terms of % AUC reduction. A greater glucose reduction in oral glucose tolerance test indicates the compound's efficacy in this rodent species.

hGPR119 = target: T1, hGPR119 (Homo sapiens, UniProt Q8TDV5); experiment: In vitro cyclic AMP assay (Cisbio HTRF) in CHO-hGPR119 cells; type: cell-based; conditions: cAMP; for activation at 1 µM: 1 h, 60 min, read-out: Induction (% induction at 1 μM); for EC50: class symbols, legend not given
T1 construct: expressed in transfected cells; host or cells: CHO cells (CHO-hGPR119)
T1 sequence (Q8TDV5 1-335): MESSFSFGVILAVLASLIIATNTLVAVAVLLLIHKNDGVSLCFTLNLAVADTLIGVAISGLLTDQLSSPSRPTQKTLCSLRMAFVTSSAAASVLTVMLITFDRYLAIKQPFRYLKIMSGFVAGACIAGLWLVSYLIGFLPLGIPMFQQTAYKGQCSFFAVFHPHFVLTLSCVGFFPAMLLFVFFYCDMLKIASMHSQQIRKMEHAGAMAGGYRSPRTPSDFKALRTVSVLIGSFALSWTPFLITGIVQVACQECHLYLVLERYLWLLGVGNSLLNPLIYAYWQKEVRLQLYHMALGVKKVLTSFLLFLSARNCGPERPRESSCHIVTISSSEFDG
In short: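 Cells plated at 5000/well and exposed to test compound dose series for 60 min at room temperature with 1 mM IBMX and 0.5% DMSO (final). Lysis with anti-cAMP antibody/d2-cAMP detection reagents, 1 h at room temperature; HTRF read at 665/620 nm (337 nm excitation); EC50 from concentration-response.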

Male SD rats = experiment: Oral glucose tolerance test in Sprague-Dawley rats; type: in vivo; conditions: 3 mpk and 10 mpk oral
Procedure: as §1, with “SD rats” for “C57BL/6 mice”
Glucose reduction observed in animals treated with GPR119 agonists is represented in terms of % AUC reduction. A greater glucose reduction in oral glucose tolerance test indicates the compound's efficacy in this rodent species.

SMILES | glucose reduction (% AUC reduction) in oral glucose tolerance test (Male C57BL/6 mice) | activation at 1 µM (hGPR119) [%] | EC50 (hGPR119) | glucose reduction (% AUC reduction) in oral glucose tolerance test (Male SD rats)
CCCc1cnc(N2CCC(C(C)Oc3nn4cc(-c5ccc(S(C)(=O)=O)nc5)nc4s3)CC2)nc1 (stereo in doubt) [Compound 1081, 2-((S)-1-(1-(5-propylpyrimidin-2-yl)piperidin-4-yl)ethoxy)-6-(6-(methylsulfonyl)pyridin-3-yl)imidazo[2,1-b][1,3,4]thiadiazole] | significant dose dependent glucose reduction | 66 | A++ | 
CC(Oc1nn2cc(-c3ccc(S(C)(=O)=O)cc3F)nc2s1)C1CCN(c2ncc(Cl)cn2)CC1 (stereo in doubt) [Compound 1090, 2-((S)-1-(1-(5-chloropyrimidin-2-yl)piperidin-4-yl)ethoxy)-6-(2-fluoro-4-(methylsulfonyl)phenyl)imidazo[2,1-b][1,3,4]thiadiazole] | significant dose dependent glucose reduction | 76 | A++ | significant dose dependent glucose reduction
CC(C)c1noc(N2CCC([C@@H](C)Oc3nn4cc(-c5ccncc5)nc4s3)CC2)n1 [Compound 1059, (R)-3-isopropyl-5-(4-(1-((6-(pyridin-4-yl)imidazo[2,1-b][1,3,4]thiadiazol-2-yl)oxy)ethyl)piperidin-1-yl)-1,2,4-oxadiazole] | significant dose dependent glucose reduction | 68 | A++ | significant dose dependent glucose reduction
CCCc1cnc(N2CCC([C@H](C)Oc3nn4cc(-c5ccc(S(C)(=O)=O)cc5)nc4s3)CC2)nc1 [Compound 1067, (S)-6-(4-(methylsulfonyl)phenyl)-2-(1-(1-(5-propylpyrimidin-2-yl)piperidin-4-yl)ethoxy)imidazo[2,1-b][1,3,4]thiadiazole] | significant dose dependent glucose reduction | 55 | A++ | significant dose dependent glucose reduction
CC(C)c1noc(N2CCC([C@H](C)Oc3nn4cc(-c5cnc(Cl)nc5)nc4s3)CC2)n1 [Compound 1071, (S)-5-(4-(1-((6-(2-chloropyrimidin-5-yl)imidazo[2,1-b][1,3,4]thiadiazol-2-yl)oxy)ethyl)piperidin-1-yl)-3-isopropyl-1,2,4-oxadiazole] | significant dose dependent glucose reduction | 75 | A++ | significant dose dependent glucose reduction
CC(C)c1noc(N2CCC([C@H](C)Oc3nn4cc(-c5cnc(S(C)(=O)=O)nc5)nc4s3)CC2)n1 [Compound 1072, (S)-3-isopropyl-5-(4-(1-((6-(2-(methylsulfonyl)pyrimidin-5-yl)imidazo[2,1-b][1,3,4]thiadiazol-2-yl)oxy)ethyl)piperidin-1-yl)-1,2,4-oxadiazole] | significant dose dependent glucose reduction | 72 | A++ | significant dose dependent glucose reduction
CCc1cnc(N2CCC([C@H](C)Oc3nn4cc(-c5ccc(S(C)(=O)=O)cc5F)nc4s3)CC2)nc1 [Compound 1086, 2-((S)-1-(1-(5-ethylpyrimidin-2-yl)piperidin-4-yl)ethoxy)-6-(2-fluoro-4-(methylsulfonyl)phenyl)imidazo[2,1-b][1,3,4]thiadiazole] | significant dose dependent glucose reduction | 87 | A++ | significant dose dependent glucose reduction
CC(C)c1noc(N2CCC([C@@H](C)Oc3nn4cc(-c5cnc(Cl)cn5)nc4s3)CC2)n1 [Compound 1087, 2-((R)-1-(1-(3-isopropyl-1,2,4-oxadiazol-5-yl)piperidin-4-yl)ethoxy)-6-(5-chloropyrazin-2-yl)imidazo[2,1-b][1,3,4]thiadiazole] | significant dose dependent glucose reduction | 75 |  | significant dose dependent glucose reduction
CC(C)c1noc(N2CCC([C@@H](C)Oc3nn4cc(-c5ccc(S(C)(=O)=O)cc5F)nc4s3)CC2)n1 [Compound 1088, 2-((R)-1-(1-(3-isopropyl-1,2,4-oxadiazol-5-yl)piperidin-4-yl)ethoxy)-6-(2-fluoro-4-(methylsulfonyl)phenyl)imidazo[2,1-b][1,3,4]thiadiazole] | significant dose dependent glucose reduction | 73 | A++ | 
CC(C)c1noc(N2CCC(C(C)Oc3nn4cc(-c5ccc(S(C)(=O)=O)cc5C(F)(F)F)nc4s3)CC2)n1 (stereo not drawn) [Compound 1091, 2-(1-(1-(3-isopropyl-1,2,4-oxadiazol-5-yl)piperidin-4-yl)ethoxy)-6-(2-(trifluoromethyl)-4-(methylsulfonyl)phenyl)imidazo[2,1-b][1,3,4]thiadiazole] |  | 33 |  | significant dose dependent glucose reduction
CC(C)OC(=O)N1CCC(C(C)Oc2nn3cc(-c4ccc(S(C)(=O)=O)cc4F)nc3s2)CC1 (stereo not drawn) [Compound 1101, Isopropyl 4-(1-(6-(2-fluoro-4-(methylsulfonyl)phenyl)imidazo[2,1-b][1,3,4]thiadiazol-2-yloxy)ethyl)piperidine-1-carboxylate] | significant dose dependent glucose reduction | 84 |  | significant dose dependent glucose reduction
CC(C)OC(=O)N1CCC([C@H](C)Oc2nn3cc(-c4ccc(S(C)(=O)=O)cc4F)nc3s2)CC1 [Compound 1108, isopropyl 4-((S)-1-(6-(2-fluoro-4-(methylsulfonyl)phenyl)imidazo[2,1-b][1,3,4]thiadiazol-2-yloxy)ethyl)piperidine-1-carboxylate] | significant dose dependent glucose reduction | 70 | A++ | significant dose dependent glucose reduction
CNS(=O)(=O)c1ccc(-c2cn3nc(OC(C)C4CCN(c5nc(C(C)C)no5)CC4)sc3n2)c(F)c1 (stereo not drawn) [Compound 1109, 3-fluoro-4-(2-(1-(1-(3-isopropyl-1,2,4-oxadiazol-5-yl)piperidin-4-yl)ethoxy)imidazo[2,1-b][1,3,4]thiadiazol-6-yl)-N-methylbenzenesulfonamide] | significant dose dependent glucose reduction | 55 |  | significant dose dependent glucose reduction

Reference: patent publication US10208030B2, “GPR119 agonist compounds” (Mankind Pharma Ltd., priority 2016, dated 2019)
